Experimental data published in ChEMBL document CHEMBL1201862, “PubChem BioAssay data set” (2004).
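Protocol summary: plate cells (96-well), add compound at 5 concentrations, incubate 48 h, interpolate endpoints linearly. GI50 marks 50% less growth.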 The source made the active and inactive calls. Cut-off read from the data, not from the text of the source: active = GI50 up to about 1.1 µM and inactive = higher.

How the values were obtained:
Test in all cases: NCI tumour cell line growth inhibition, 48 h
786-0 = test system: 786-0
A498 = test system: A498
A549 = test system: A549
ACHN = test system: ACHN
CCRF-CEM = test system: CCRF-CEM
COLO 205 = test system: COLO 205
DLD-1 = test system: DLD-1
DMS-114 = test system: DMS-114
EKVX = test system: EKVX
HCC 2998 = test system: HCC 2998
HCT-116 = test system: HCT-116
HCT-15 = test system: HCT-15
HL-60 = test system: HL-60
HOP-62 = test system: HOP-62
HOP-92 = test system: HOP-92
HT-29 = test system: HT-29
IGROV-1 = test system: IGROV-1
K562 = test system: K562
KM-20L2 = test system: KM-20L2
KM12 = test system: KM12
LOX IMVI = test system: LOX IMVI
LXFL 529 = test system: LXFL 529
M14 = test system: M14
M19-MEL = test system: M19-MEL
MOLT-4 = test system: MOLT-4
Malme-3M = test system: Malme-3M
NCI-H226 = test system: NCI-H226
NCI-H23 = test system: NCI-H23
NCI-H460 = test system: NCI-H460
NCI-H522 = test system: NCI-H522
OVCAR-3 = test system: OVCAR-3
OVCAR-4 = test system: OVCAR-4
OVCAR-5 = test system: OVCAR-5
OVCAR-8 = test system: OVCAR-8
RXF 393 = test system: RXF 393
RXF 631 = test system: RXF 631
SF-268 = test system: SF-268
SF-295 = test system: SF-295
SF-539 = test system: SF-539
SK-MEL-28 = test system: SK-MEL-28
SK-MEL-2 = test system: SK-MEL-2
SK-MEL-5 = test system: SK-MEL-5
SK-OV-3 = test system: SK-OV-3
SN12C = test system: SN12C
SNB-19 = test system: SNB-19
SNB-75 = test system: SNB-75
SNB-78 = test system: SNB-78
SR = test system: SR
SW-620 = test system: SW-620
TK-10 = test system: TK-10
U-251 = test system: U-251
UACC-257 = test system: UACC-257
UACC-62 = test system: UACC-62
UO-31 = test system: UO-31
XF498 = test system: XF498
DMS-273 = test system: DMS-273
HOP-18 = test system: HOP-18
MDA-N = test system: MDA-N

## CC1=CC[C@@H](C(C)(C)O)C[C@@H]1O
786-0
  GI50: > 5 mM (inactive)
A498
  GI50: > 5 mM (inactive)
A549
  GI50: > 5 mM (inactive)
ACHN
  GI50: > 5 mM (inactive)
CCRF-CEM
  GI50: > 5 mM (inactive)
COLO 205
  GI50: > 5 mM (inactive)
DLD-1
  GI50: > 5 mM (inactive)
DMS-114
  GI50: > 5 mM (inactive)
EKVX
  GI50: > 5 mM (inactive)
HCC 2998
  GI50: > 5 mM (inactive)
HCT-116
  GI50: > 5 mM (inactive)
HCT-15
  GI50: > 5 mM
HL-60
  GI50: 3.94 mM (inactive)
HOP-62
  GI50: > 5 mM (inactive)
HOP-92
  GI50: > 5 mM (inactive)
HT-29
  GI50: > 5 mM (inactive)
IGROV-1
  GI50: > 5 mM (inactive)
K562
  GI50: > 5 mM (inactive)
KM-20L2
  GI50: > 5 mM (inactive)
KM12
  GI50: > 5 mM (inactive)
LOX IMVI
  GI50: > 5 mM (inactive)
LXFL 529
  GI50: > 5 mM (inactive)
M14
  GI50: > 5 mM (inactive)
M19-MEL
  GI50: > 5 mM (inactive)
MOLT-4
  GI50: > 5 mM (inactive)
Malme-3M
  GI50: > 5 mM (inactive)
NCI-H226
  GI50: > 5 mM (inactive)
NCI-H23
  GI50: > 5 mM (inactive)
NCI-H460
  GI50: > 5 mM (inactive)
NCI-H522
  GI50: > 5 mM (inactive)
OVCAR-3
  GI50: > 5 mM (inactive)
OVCAR-4
  GI50: > 5 mM (inactive)
OVCAR-5
  GI50: > 5 mM (inactive)
OVCAR-8
  GI50: > 5 mM (inactive)
RXF 393
  GI50: > 5 mM (inactive)
RXF 631
  GI50: > 5 mM (inactive)
SF-268
  GI50: > 5 mM (inactive)
SF-295
  GI50: > 5 mM (inactive)
SF-539
  GI50: > 5 mM (inactive)
SK-MEL-28
  GI50: > 5 mM (inactive)
SK-MEL-2
  GI50: > 5 mM (inactive)
SK-MEL-5
  GI50: > 5 mM (inactive)
SK-OV-3
  GI50: > 5 mM (inactive)
SN12C
  GI50: > 5 mM (inactive)
SNB-19
  GI50: > 5 mM (inactive)
SNB-75
  GI50: > 5 mM (inactive)
SNB-78
  GI50: > 5 mM (inactive)
SR
  GI50: > 5 mM (inactive)
SW-620
  GI50: > 5 mM (inactive)
TK-10
  GI50: > 5 mM (inactive)
U-251
  GI50: > 5 mM (inactive)
UACC-257
  GI50: > 5 mM (inactive)
UACC-62
  GI50: > 5 mM (inactive)
UO-31
  GI50: > 5 mM (inactive)
XF498
  GI50: > 5 mM (inactive)

## O=c1[nH]c2ccccc2n1C1CCN(CCCC(c2ccc(F)cc2)c2ccc(F)cc2)CC1 [PIMOZIDE]
CCRF-CEM
  GI50: 0.00551 mM (inactive)
COLO 205
  GI50: 0.00169 mM (inactive)
DLD-1
  GI50: 0.00574 mM (inactive)
DMS-114
  GI50: 0.00222 mM (inactive)
DMS-273
  GI50: 0.00345 mM (inactive)
HCC 2998
  GI50: 0.0019 mM (inactive)
HCT-15
  GI50: 0.0031 mM
HL-60
  GI50: 0.00237 mM (inactive)
HOP-18
  GI50: 0.0156 mM (inactive)
HOP-62
  GI50: 0.0107 mM (inactive)
HOP-92
  GI50: 0.0039 mM (inactive)
HT-29
  GI50: 0.00255 mM (inactive)
IGROV-1
  GI50: 0.0139 mM (inactive)
K562
  GI50: 0.00288 mM (inactive)
KM-20L2
  GI50: 0.00201 mM (inactive)
LXFL 529
  GI50: 0.00373 mM (inactive)
M14
  GI50: 0.0027 mM (inactive)
M19-MEL
  GI50: 0.00381 mM (inactive)
MDA-N
  GI50: 0.00977 mM (inactive)
MOLT-4
  GI50: 0.00367 mM (inactive)
Malme-3M
  GI50: 0.00205 mM (inactive)
NCI-H522
  GI50: 0.00281 mM (inactive)
OVCAR-4
  GI50: 0.00859 mM (inactive)
OVCAR-5
  GI50: 0.008 mM (inactive)
SF-268
  GI50: 0.0121 mM (inactive)
SF-295
  GI50: 0.00402 mM (inactive)
SK-MEL-28
  GI50: 0.00215 mM (inactive)
SK-OV-3
  GI50: 0.0128 mM (inactive)
SN12C
  GI50: 0.0122 mM (inactive)
SNB-19
  GI50: 0.0145 mM (inactive)
SNB-75
  GI50: 0.0108 mM (inactive)
SNB-78
  GI50: 0.0151 mM (inactive)
SR
  GI50: 0.0025 mM (inactive)
XF498
  GI50: 0.00417 mM (inactive)
